Reference: the supplement of paper PMC4862054

Columns and labels:
Settings in all cases: incubation time: 72 h
HCC1599 [1] = assay: normalised viability (% of control), CellTiter-Blue; higher = more viable cells (100 = DMSO, 0 = benzethonium chloride kill control)
Method in brief: (§1)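 Breast cancer cell lines in 20 µl suspension were seeded onto 384-well plates pre-loaded with compound dissolved in 5 µl medium, then incubated 72 h. CellTiter-Blue reagent (2.5 µl) was added for 2 h at 37 °C and fluorescence read at 560/590 nm. Each plate was normalised to vehicle (100) and a positive kill control (0), with Z'-factor quality control. The value is normalised viability at one listed concentration of the series.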

HDQ-P1 [2] = assay: as above
Method in brief: as §1

HCC1937 [3] = assay: as above
Method in brief: as §1

Hs578T [4] = assay: as above
Method in brief: as §1

SK-BR-3 [5] = assay: as above
Method in brief: as §1

DU-4475 [6] = assay: as above
Method in brief: as §1

CAL-120 [7] = assay: as above
Method in brief: as §1

MDA-MB-468 [8] = assay: as above
Method in brief: as §1

BT-474 [9] = assay: as above
Method in brief: as §1

MDA-MB-231 [10] = assay: as above
Method in brief: as §1

MDA-MB-453 [11] = assay: as above
Method in brief: as §1

MDA-MB-436 [12] = assay: as above
Method in brief: as §1

CAL-51 [13] = assay: as above
Method in brief: as §1

CAL-148 [14] = assay: as above
Method in brief: as §1

CAL-85-1 [15] = assay: as above
Method in brief: as §1

HCC1143 [16] = assay: as above
Method in brief: as §1

BT-549 [17] = assay: as above
Method in brief: as §1

MFM-223 [18] = assay: as above
Method in brief: as §1

HCC1599 [19] = assay: normalised response (% of control), CellTiter-Glo; higher = more viable cells (100 = DMSO, 0 = benzethonium chloride kill control)
Method in brief: (§2)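 Breast cancer cell lines in 20 µl suspension were added to 384-well plates containing compound at 5 concentrations, spaced in 10-fold steps across a 10,000-fold range chosen for each compound, and incubated for 72 h. CellTox Green fluorescence was read at 485/520 nm, followed by CellTiter-Glo luminescence after 10 min at room temperature. Signals on each plate were normalised so that 0.1 % DMSO equals 100 and a positive kill control equals 0. Every value in the table is the normalised signal at one concentration of the series.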

HDQ-P1 [20] = assay: as above
Method in brief: as §2

MCF-10A = assay: as above
Method in brief: as §2

HCC1937 [21] = assay: as above
Method in brief: as §2

Hs578T [22] = assay: as above
Method in brief: as §2

SK-BR-3 [23] = assay: as above
Method in brief: as §2

DU-4475 [24] = assay: as above
Method in brief: as §2

CAL-120 [25] = assay: as above
Method in brief: as §2

MDA-MB-468 [26] = assay: as above
Method in brief: as §2

BT-474 [27] = assay: as above
Method in brief: as §2

MDA-MB-231 [28] = assay: as above
Method in brief: as §2

MDA-MB-453 [29] = assay: as above
Method in brief: as §2

MDA-MB-436 [30] = assay: as above
Method in brief: as §2

CAL-51 [31] = assay: as above
Method in brief: as §2

CAL-148 [32] = assay: as above
Method in brief: as §2

CAL-85-1 [33] = assay: as above
Method in brief: as §2

HCC1143 [34] = assay: as above
Method in brief: as §2

BT-549 [35] = assay: as above
Method in brief: as §2

MFM-223 [36] = assay: as above
Method in brief: as §2

Structure (SMILES) | normalised viability (HCC1599 [1]) [%] | normalised viability (HDQ-P1 [2]) [%] | normalised viability (HCC1937 [3]) [%] | normalised viability (Hs578T [4]) [%] | normalised viability (SK-BR-3 [5]) [%] | normalised viability (DU-4475 [6]) [%] | normalised viability (CAL-120 [7]) [%] | normalised viability (MDA-MB-468 [8]) [%] | normalised viability (BT-474 [9]) [%] | normalised viability (MDA-MB-231 [10]) [%] | normalised viability (MDA-MB-453 [11]) [%] | normalised viability (MDA-MB-436 [12]) [%] | normalised viability (CAL-51 [13]) [%] | normalised viability (CAL-148 [14]) [%] | normalised viability (CAL-85-1 [15]) [%] | normalised viability (HCC1143 [16]) [%] | normalised viability (BT-549 [17]) [%] | normalised viability (MFM-223 [18]) [%] | normalised response (HCC1599 [19]) [%] | normalised response (HDQ-P1 [20]) [%] | normalised response (MCF-10A) [%] | normalised response (HCC1937 [21]) [%] | normalised response (Hs578T [22]) [%] | normalised response (SK-BR-3 [23]) [%] | normalised response (DU-4475 [24]) [%] | normalised response (CAL-120 [25]) [%] | normalised response (MDA-MB-468 [26]) [%] | normalised response (BT-474 [27]) [%] | normalised response (MDA-MB-231 [28]) [%] | normalised response (MDA-MB-453 [29]) [%] | normalised response (MDA-MB-436 [30]) [%] | normalised response (CAL-51 [31]) [%] | normalised response (CAL-148 [32]) [%] | normalised response (CAL-85-1 [33]) [%] | normalised response (HCC1143 [34]) [%] | normalised response (BT-549 [35]) [%] | normalised response (MFM-223 [36]) [%]
CC(C)C[C@@H](C(=O)N[C@H](C(=O)OC1CCCC1)c1ccccc1)[C@H](O)C(=O)NO [Tosedostat] (1 nM) | 106 | 130 | 86.9 | 118 | 108 | 93.3 | 100 | 111 | 98.7 | 114 | 108 | 100 | 112 | 109 | 101 | 102 | 92.1 | 94.3 | 106 | 100 | 98.7 | 97.4 | 94.4 | 109 | 103 | 103 | 102 | 100 | 107 | 110 | 103 | 108 | 104 | 103 | 100 | 100 | 105
COc1cc2/c(=N/c3ccc(Br)cc3F)nc[nH]c2cc1OCC1CCN(C)CC1 [Vandetanib] (1 nM) | 112 | 56.1 | 82.5 | 101 | 84 | 110 | 124 | 94.9 | 107 | 88.2 | 94.7 | 81.1 | 97 | 98.4 | 110 | 106 | 87.6 | 94.8 | 81.8 | 90.7 | 89.4 | 102 | 93.9 | 68.2 | 94.8 | 88.7 | 88.1 | 85.2 | 91.7 | 86 | 86.1 | 118 | 83.8 | 92.6 | 96.2 | 92.7 | 87
COCC[n+]1c2c(n(Cc3cnccn3)c1C)C(=O)c1ccccc1C2=O [YM155] (1 nM) | 136 | 81.3 | 90.1 | 107 | 94.5 | 108 | 99.2 | 85.3 | 103 | 83 | 93.3 | 101 | 92.4 | 105 | 107 | 114 | 102 | 98.8 | 84.7 | 109 | 82.1 | 89.8 | 92.5 | 80.6 | 94.7 | 94.7 | 93.6 | 86.8 | 99.6 | 86.2 | 81.3 | 119 | 93.3 | 89.6 | 88.8 | 96 | 86.8
